Test results taken from patent US20070059272A1 (priority 2005, published 2007).
“Also recorded” adds a separate entry of the source.

How the values were obtained:
[1] = tested on: pyocyanin (PCN) production in P. aeruginosa PAO1; assay type: cell-based, Pseudomonas aeruginosa
[2] = tested on: PA-IL in P. aeruginosa; settings: cited from earlier work
[3] = tested on: PA-I expression in P. aeruginosa; assay type: cell-based, Pseudomonas aeruginosa
[4] = tested on: PA-I promoter activity in reporter strain PA27853/PLL-EGFP
[5] = tested on: membrane fractions of P. aeruginosa (PAO1); experiment: ELISA binding to membrane fractions and solubilized membrane proteins of P. aeruginosa PAO1; set-up: species or system Pseudomonas aeruginosa; settings: human cytokines, ELISA
[6] = biological target: membrane proteins of P. aeruginosa strain PAO1 (whole fixed cells, membrane fractions, solubilized membrane proteins)
[7] = tested on: intestinal epithelial cells; settings: cited from earlier work; for adhesion of P. aeruginosa to intestinal epithelial cells: 0.6% solution
[8] = tested on: PA-I mRNA in PA27853; experiment: PA-I mRNA in PA27853 exposed to Caco-2 cells or cell fractions with and without GalNac; assay type: cell-based, Pseudomonas aeruginosa; settings: in the presence of GalNac
Procedure: Using Caco-2 intestinal epithelial cells, the issue of whether components of intestinal epithelial cells themselves played a role in triggering the expression of PA-I was addressed. Strain PA27853 was exposed to media (apical and basolateral) and Caco-2 cell fractions (cytosolic, nuclear, membrane) at various time intervals. PA-I mRNA was measured in PA27853 in response to the various Caco-2 cell media fractions in the presence and absence of GalNac, a sugar that binds specifically to PA-I and prevents P. aeruginosa adherence to Caco-2 cells. Media alone from Caco-2 cells grown in transwells (apical or basolateral) had no effect on PA-I expression. However, Caco-2 cell membrane fractions triggered the accumulation of a very high abundance of PA-I mRNA (>10 fold increase)-an effect that was attenuated in the presence of GalNac (FIG. 7A). These in vitro findings are in agreement with the above mouse studies showing that PA-I can be activated in response to contact with the intestinal epithelium, yet in the unstressed Caco-2 cell system, luminal contents (apical media) had no effect, similar to the control mice. […]

[9] = biological target: PA-I (Pseudomonas aeruginosa, UniProt Q05097); settings: cited from earlier work
Sequence of PA-I (Q05097 whole entry): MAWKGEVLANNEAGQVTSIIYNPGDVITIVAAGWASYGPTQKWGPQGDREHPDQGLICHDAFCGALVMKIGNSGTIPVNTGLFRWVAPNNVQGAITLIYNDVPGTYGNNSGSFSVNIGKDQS

For `COC(=O)c1ccccc1N` [MA, methyl anthranilate], the “effect on ability of U-50,488 to enhance PCN production” value [1] was “inhibited the ability of U-50,488 to enhance PCN production”.

In the case of `NC[C@H](O)c1ccc(O)c(O)c1` [norepinephrine], the “effect on QS-dependent virulence factor PA-IL” value [2] is listed as “can also affect” and the “PA-I expression, in vitro studies” value [3] is listed as “did not change PA-I expression; also recorded: not affected”.

With `Nc1ncnc2c1ncn2[C@@H]1O[C@H](COP(=O)(O)O)[C@@H](O)[C@H]1O` [AMP] the “PA-I expression, nucleosides and nucleotides” value [4] was “no evident inducing effects”.

For `C[C@H](O)C(=O)O` [L-lactate], the “PA-I promoter activity, candidate compounds in HDMEM” value (shortened to “PA-I promoter activity”) [4] was “no effect”.

For dynorphin, the “PCN production (OD520 nm)” value [1] was “enhanced PCN production in a dose-dependent manner”.

With `Nc1ncnc2c1ncn2[C@@H]1O[C@H](COP(=O)(O)OP(=O)(O)O)[C@@H](O)[C@H]1O` [ADP] the “PA-I expression, nucleosides and nucleotides” value [4] was “no evident inducing effects”.

In the case of `Nc1ncnc2c1ncn2[C@@H]1O[C@H](CO)[C@@H](O)[C@H]1O` [adenosine], the “PA-I expression, nucleosides and nucleotides” value [4] is reported as “both dose- and time-dependent” and the “PA-I promoter activity” value [4] is reported as “enhanced fluorescence”.

With IL-4: human cytokine the “binding to P. aeruginosa cell membranes” value [5] was “No binding”.

For `Nc1ncnc2c1ncn2[C@@H]1O[C@H](COP(=O)(O)OP(=O)(O)OP(=O)(O)O)[C@@H](O)[C@H]1O` [ATP], the “PA-I expression, nucleosides and nucleotides” value [4] was “no evident inducing effects”.

Work on “recombinant human Interferon gamma (IFN-γ) (from UniProt P01579 24-166) (ligand)” yielded a percent of bacterial cells that bound IFN-γ [6] of 73%.

With IL-10: human cytokine the “binding to P. aeruginosa cell membranes” value [5] was “No binding”.

For `CC(=O)N[C@H]1C(O)O[C@H](CO)[C@H](O)[C@@H]1O` (stereo partly drawn) [GalNAc, N-acetyl-D-galactosamine], the “adhesion of P. aeruginosa to intestinal epithelial cells” value [7] is listed as “markedly decreased adhesion”, the “barrier function of intestinal epithelial cells” value [7] is listed as “do not alter their barrier function” and the “PA-I mRNA increase in PA27853 densely adhered to Caco-2 cells” value [8] is listed as “nearly completely abolished”. For the same molecule, the “PA-I mRNA increase triggered by Caco-2 cell membrane fractions” value [8] was “attenuated”.

In the case of `OC[C@H]1O[C@H](OCC2O[C@@H](O)[C@H](O)[C@@H](O)[C@@H]2O)[C@H](O)[C@@H](O)[C@H]1O` (some centres unmarked) [mellibiose], the “binding affinity to PA-I” value [9] is given as “highest binding affinity to date”, the “adhesion of P. aeruginosa to intestinal epithelial cells” value [7] is given as “markedly decreased adhesion” and the “barrier function of intestinal epithelial cells” value [7] is given as “do not alter their barrier function”.

In the case of `Oc1ccc2c3c1O[C@H]1c4[nH]c5c(c4C[C@@]4(O)[C@@H](C2)N(CC2CC2)CC[C@]314)C[C@@]1(O)[C@H]2Cc3ccc(O)c4c3[C@@]1(CCN2CC1CC1)[C@H]5O4` [norbinaltorphimine, nor-binaltorphimine], the “dose that completely inhibits enhanced PCN production” value [1] is reported as 200 µM and the “effect on U-50,488-enhanced PCN production” value [1] is reported as “attenuates enhanced PCN production”.

With TGF-β the “binding to P. aeruginosa cell membranes” value [5] was “No binding”.

In the case of `C[C@@H](O)C(=O)O` [D-lactate], the “PA-I promoter activity” value [4] is reported as “no effect”.

In the case of “EGF: human cytokine tested for membrane binding”, the “binding to P. aeruginosa cell membranes” value [5] is reported as “No binding”.

In the case of `OC[C@H]1O[C@@H](n2cnc3c(O)ncnc32)[C@H](O)[C@@H]1O` [inosine], the “inosine concentration inducing PA-I expression, fold less than adenosine of equivalent effect” value [4] is reported as 10 fold, the “onset of PA-I expression compared with adenosine” value [4] is reported as “earlier time point” and the “size of effect on PA-I expression compared with adenosine” value [4] is reported as “greater”.

B1: adenosine deaminase: enzyme added to deplete the media of adenosine (protein, UniProt P00813 2-363, looked up)
Adenosine deaminase: AQTPAFDKPKVELHVHLDGSIKPETILYYGRRRGIALPANTAEGLLNVIGMDKPLTLPDFLAKFDYYMPAIAGCREAIKRIAYEFVEMKAKEGVVYVEVRYSPHLLANSKVEPIPWNQAEGDLTPDEVVALVGQGLQEGERDFGVKARSILCCMRHQPNWSPKVVELCKKYQQQTVVAIDLAGDETIPGSSLLPGHVQAYQEAVKSGIHRTVHAGEVGSAEVVKEAVDILKTERLGHGYHTLEDQALYNRLRQENMHFEICPWSSYLTGAWKPDTEHAVIRLKNDQANYSLNTDDPLIFKSTLDTDYQMTKRDMGFTEEEFKRLNINAAKSSFLPEDEKRELLDLLYKAYGMPPSASAGQNL
With B1 the “PA-I expression after depleting adenosine from media of HIF-1-a-activated Caco-2 cells” value ([4]; Caco-2) was “even greater increase in PA-I expression”.
